{
  "source": "patent US12479847B2",
  "about": "(DANA-FARBER CANCER INSTITUTE, INC., priority 2019, dated 2025)",
  "assay_in_all_cases": "KINOMEscan (ScanMAX) kinase profiling",
  "assay_type_in_all_cases": "binding",
  "key": {"panel of 468 kinases [1]": {"biological_target": "T1, panel of 468 kinases (Homo sapiens, UniProt P51812)", "T1 construct": "purchased KINOMEscan (ScanMAX) service", "details": "1 μM, read-out: % control"}, "panel of 468 kinases [2]": {"biological_target": "T2, panel of 468 kinases (Homo sapiens, UniProt Q9UQ88)", "T2 construct": "purchased KINOMEscan (ScanMAX) service", "T2 sequence (Q9UQ88 1-783)": "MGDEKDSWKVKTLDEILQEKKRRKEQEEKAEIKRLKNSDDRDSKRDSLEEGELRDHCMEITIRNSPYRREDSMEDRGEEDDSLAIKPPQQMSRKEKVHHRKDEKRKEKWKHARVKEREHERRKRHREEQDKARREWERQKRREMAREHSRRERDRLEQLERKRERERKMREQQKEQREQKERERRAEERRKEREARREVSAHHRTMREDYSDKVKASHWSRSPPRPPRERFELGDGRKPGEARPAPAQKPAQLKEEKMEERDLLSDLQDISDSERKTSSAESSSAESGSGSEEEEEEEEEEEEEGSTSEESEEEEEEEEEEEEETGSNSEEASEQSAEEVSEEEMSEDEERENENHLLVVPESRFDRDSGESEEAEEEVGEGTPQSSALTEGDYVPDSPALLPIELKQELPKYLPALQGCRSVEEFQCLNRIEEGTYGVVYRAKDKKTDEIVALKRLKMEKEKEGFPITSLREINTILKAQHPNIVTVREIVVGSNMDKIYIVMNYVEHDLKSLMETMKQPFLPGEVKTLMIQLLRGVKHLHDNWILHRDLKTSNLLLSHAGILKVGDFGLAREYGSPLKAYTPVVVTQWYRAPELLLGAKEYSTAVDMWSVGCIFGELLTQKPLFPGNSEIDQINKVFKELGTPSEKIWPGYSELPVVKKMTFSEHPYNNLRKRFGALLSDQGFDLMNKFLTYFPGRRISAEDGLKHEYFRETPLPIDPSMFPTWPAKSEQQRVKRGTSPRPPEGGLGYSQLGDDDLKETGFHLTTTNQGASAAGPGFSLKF", "details": "CDC2L2; 1 μM; read-out: % control"}, "panel of 468 kinases [3]": {"biological_target": "T3, panel of 468 kinases (Homo sapiens, UniProt Q8N4C8)", "T3 construct": "purchased KINOMEscan (ScanMAX) service", "details": "MINK; 1 μM; read-out: % control"}, "panel of 468 kinases [4]": {"biological_target": "T4, panel of 468 kinases (Homo sapiens, UniProt P10721, V559D/V654A)", "T4 construct": "purchased KINOMEscan (ScanMAX) service", "T4 sequence (P10721 26-976 V559D/V654A)": "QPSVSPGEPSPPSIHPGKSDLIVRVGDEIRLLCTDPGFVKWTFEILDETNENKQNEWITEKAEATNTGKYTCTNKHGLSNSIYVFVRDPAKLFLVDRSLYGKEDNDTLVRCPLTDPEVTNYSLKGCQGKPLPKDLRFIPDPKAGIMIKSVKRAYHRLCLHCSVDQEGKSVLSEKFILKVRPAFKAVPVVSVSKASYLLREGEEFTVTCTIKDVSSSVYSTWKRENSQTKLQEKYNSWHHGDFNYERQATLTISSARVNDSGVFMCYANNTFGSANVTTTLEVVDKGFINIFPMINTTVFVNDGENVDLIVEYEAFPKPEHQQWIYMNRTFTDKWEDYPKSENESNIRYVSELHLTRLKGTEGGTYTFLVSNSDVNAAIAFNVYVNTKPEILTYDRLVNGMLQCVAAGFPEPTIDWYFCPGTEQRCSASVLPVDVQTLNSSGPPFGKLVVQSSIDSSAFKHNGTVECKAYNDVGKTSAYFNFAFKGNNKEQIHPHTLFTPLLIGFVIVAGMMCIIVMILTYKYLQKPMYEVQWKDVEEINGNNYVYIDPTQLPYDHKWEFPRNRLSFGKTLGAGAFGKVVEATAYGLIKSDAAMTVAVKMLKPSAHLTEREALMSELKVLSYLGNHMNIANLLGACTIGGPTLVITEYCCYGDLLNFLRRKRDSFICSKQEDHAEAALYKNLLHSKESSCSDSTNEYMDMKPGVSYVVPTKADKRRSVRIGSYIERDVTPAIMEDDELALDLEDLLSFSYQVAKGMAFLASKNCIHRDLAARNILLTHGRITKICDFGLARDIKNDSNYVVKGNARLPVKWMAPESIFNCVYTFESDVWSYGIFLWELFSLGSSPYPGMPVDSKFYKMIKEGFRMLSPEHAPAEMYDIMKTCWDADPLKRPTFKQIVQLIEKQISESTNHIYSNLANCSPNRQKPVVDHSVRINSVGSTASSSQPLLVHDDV", "details": "KIT(V559D,V654A); 1 μM; read-out: % control"}, "panel of 468 kinases [5]": {"biological_target": "T5, panel of 468 kinases (Mycobacterium tuberculosis, UniProt P9WI81)", "T5 construct": "purchased KINOMEscan (ScanMAX) service", "details": "read-out: % control"}, "panel of 468 kinases [6]": {"biological_target": "T6, panel of 468 kinases (Homo sapiens, UniProt Q9Y2U5)", "T6 construct": "purchased KINOMEscan (ScanMAX) service", "T6 sequence (Q9Y2U5 1-619)": "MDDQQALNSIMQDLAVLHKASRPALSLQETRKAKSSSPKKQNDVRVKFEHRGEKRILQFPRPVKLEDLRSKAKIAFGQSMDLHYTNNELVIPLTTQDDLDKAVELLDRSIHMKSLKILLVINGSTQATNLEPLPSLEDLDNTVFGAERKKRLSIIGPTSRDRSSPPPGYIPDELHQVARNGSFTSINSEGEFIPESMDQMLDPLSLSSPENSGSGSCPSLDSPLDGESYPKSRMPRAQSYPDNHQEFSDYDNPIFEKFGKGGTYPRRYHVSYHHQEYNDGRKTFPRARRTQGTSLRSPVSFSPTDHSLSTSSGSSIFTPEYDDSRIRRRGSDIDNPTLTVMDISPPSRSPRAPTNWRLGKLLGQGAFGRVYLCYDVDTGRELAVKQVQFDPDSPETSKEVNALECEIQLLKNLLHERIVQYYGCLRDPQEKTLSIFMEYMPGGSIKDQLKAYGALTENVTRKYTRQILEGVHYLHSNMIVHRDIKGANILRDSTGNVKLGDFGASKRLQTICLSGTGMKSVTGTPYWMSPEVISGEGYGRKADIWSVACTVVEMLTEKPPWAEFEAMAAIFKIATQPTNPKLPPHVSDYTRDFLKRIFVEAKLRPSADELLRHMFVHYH", "details": "MAP3K2; 1 μM; read-out: % control"}, "panel of 468 kinases [7]": {"biological_target": "T7, panel of 468 kinases (Homo sapiens, UniProt Q16512)", "T7 construct": "purchased KINOMEscan (ScanMAX) service", "details": "PKN1; 1 μM; read-out: % control"}, "panel of 468 kinases [8]": {"biological_target": "T8, panel of 468 kinases (Homo sapiens, UniProt Q8NEB9)", "T8 construct": "purchased KINOMEscan (ScanMAX) service", "details": "VPS34; 1 μM; read-out: % control"}, "panel of 468 kinases [9]": {"biological_target": "T9, panel of 468 kinases (Homo sapiens, UniProt P42336, E542K)", "T9 construct": "purchased KINOMEscan (ScanMAX) service", "T9 sequence (P42336 whole entry E542K)": "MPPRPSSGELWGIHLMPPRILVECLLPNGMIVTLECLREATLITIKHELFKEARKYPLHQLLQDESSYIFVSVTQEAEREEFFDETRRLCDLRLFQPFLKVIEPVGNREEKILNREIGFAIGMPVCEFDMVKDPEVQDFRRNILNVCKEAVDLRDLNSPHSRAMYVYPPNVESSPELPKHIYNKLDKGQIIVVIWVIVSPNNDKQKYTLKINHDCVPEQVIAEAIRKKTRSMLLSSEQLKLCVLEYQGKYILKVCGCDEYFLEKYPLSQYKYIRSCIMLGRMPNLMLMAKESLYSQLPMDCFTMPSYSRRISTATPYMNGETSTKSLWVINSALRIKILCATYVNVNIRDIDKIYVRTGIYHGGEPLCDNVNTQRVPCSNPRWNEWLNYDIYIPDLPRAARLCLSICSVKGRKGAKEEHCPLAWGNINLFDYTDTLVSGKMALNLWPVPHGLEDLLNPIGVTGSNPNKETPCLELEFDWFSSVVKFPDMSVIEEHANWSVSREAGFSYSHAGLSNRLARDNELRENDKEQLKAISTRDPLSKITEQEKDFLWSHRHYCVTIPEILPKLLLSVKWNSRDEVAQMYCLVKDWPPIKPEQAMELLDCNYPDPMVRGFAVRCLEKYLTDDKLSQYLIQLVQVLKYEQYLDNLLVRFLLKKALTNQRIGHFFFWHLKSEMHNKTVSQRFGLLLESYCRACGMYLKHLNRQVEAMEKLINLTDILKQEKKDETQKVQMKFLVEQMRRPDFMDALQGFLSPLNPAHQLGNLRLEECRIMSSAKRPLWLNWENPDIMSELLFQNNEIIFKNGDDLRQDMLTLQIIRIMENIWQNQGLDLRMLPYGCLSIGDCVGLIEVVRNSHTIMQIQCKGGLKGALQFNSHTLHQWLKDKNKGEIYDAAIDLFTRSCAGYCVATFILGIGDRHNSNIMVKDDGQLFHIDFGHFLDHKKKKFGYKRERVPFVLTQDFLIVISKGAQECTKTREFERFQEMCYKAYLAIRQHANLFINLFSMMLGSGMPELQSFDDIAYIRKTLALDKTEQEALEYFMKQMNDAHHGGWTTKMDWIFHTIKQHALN", "details": "PIK3CA(E542K); 1 μM; read-out: % control"}},
  "note": "Like-named read-outs stand apart in the source and are kept apart here.",
  "data": [
    {"smiles": "CNc1nc(Nc2ccc(S(=O)(=O)N3CCC(N4CCOCC4)CC3)cc2OC)nc2[nH]cc(Cl)c12", "note": "[Compound 12, 5-chloro-N2-(2-methoxy-4-((4-morpholinopiperidin-1-yl)sulfonyl)phenyl)-N4-methyl-7H-pyrrolo[2,3-d]pyrimidine-2,4-diamine]", "values": [
      {"measurement": "remaining binding at 1 µM", "setting": "panel of 468 kinases [1]; RSK2(Kin.Dom.1-N-terminal)", "result": 88, "unit": "%"},
      {"measurement": "remaining binding at 1 µM", "setting": "panel of 468 kinases [1]; RSK2(Kin.Dom.2-C-terminal)", "result": 28, "unit": "%"},
      {"measurement": "remaining binding at 1 µM", "setting": "panel of 468 kinases [2]", "result": 100, "unit": "%"},
      {"measurement": "remaining binding at 1 µM", "setting": "panel of 468 kinases [3]", "result": 75, "unit": "%"},
      {"measurement": "remaining binding at 1 µM", "setting": "panel of 468 kinases [4]", "result": 100, "unit": "%"},
      {"measurement": "remaining binding at 1 µM", "setting": "panel of 468 kinases [5]", "result": 93, "unit": "%"},
      {"measurement": "remaining binding at 1 µM", "setting": "panel of 468 kinases [6]", "result": 80, "unit": "%"},
      {"measurement": "remaining binding at 1 µM", "setting": "panel of 468 kinases [7]", "result": 100, "unit": "%"},
      {"measurement": "remaining binding at 1 µM", "setting": "panel of 468 kinases [8]", "result": 62, "unit": "%"},
      {"measurement": "remaining binding at 1 µM", "setting": "panel of 468 kinases [9]", "result": 65, "unit": "%"}
    ]},
    {"smiles": "CNc1nc(Nc2ccc(C(=O)N3CCC(N4CCOCC4)CC3)c3c2OCO3)nc2[nH]cc(Cl)c12", "note": "[Compound 75, (7-((5-chloro-4-(methylamino)-7H-pyrrolo[2,3-d]pyrimidin-2-yl)amino)benzo[d][1,3]dioxol-4-yl)(4-morpholinopiperidin-1-yl)methanone]", "values": [
      {"measurement": "remaining binding at 1 µM", "setting": "panel of 468 kinases [1]; RSK2(Kin.Dom.1-N-terminal)", "result": 71, "unit": "%"},
      {"measurement": "remaining binding at 1 µM", "setting": "panel of 468 kinases [1]; RSK2(Kin.Dom.2-C-terminal)", "result": 31, "unit": "%"},
      {"measurement": "remaining binding at 1 µM", "setting": "panel of 468 kinases [2]", "result": 100, "unit": "%"},
      {"measurement": "remaining binding at 1 µM", "setting": "panel of 468 kinases [3]", "result": 18, "unit": "%"},
      {"measurement": "remaining binding at 1 µM", "setting": "panel of 468 kinases [4]", "result": 94, "unit": "%"},
      {"measurement": "remaining binding at 1 µM", "setting": "panel of 468 kinases [5]", "result": 68, "unit": "%"},
      {"measurement": "remaining binding at 1 µM", "setting": "panel of 468 kinases [6]", "result": 15, "unit": "%"},
      {"measurement": "remaining binding at 1 µM", "setting": "panel of 468 kinases [7]", "result": 98, "unit": "%"},
      {"measurement": "remaining binding at 1 µM", "setting": "panel of 468 kinases [8]", "result": 69, "unit": "%"},
      {"measurement": "remaining binding at 1 µM", "setting": "panel of 468 kinases [9]", "result": 78, "unit": "%"}
    ]},
    {"smiles": "CNc1nc(Nc2ccc(P3(=O)CCN(C4CCOCC4)CC3)cc2OC)nc2[nH]cc(Cl)c12", "note": "[Compound 77, 4-(4-((5-chloro-4-(methylamino)-7H-pyrrolo[2,3-d]pyrimidin-2-yl)amino)-3-methoxyphenyl)-1-(tetrahydro-2H-pyran-4-yl)-1,4-azaphosphinane 4-oxide]", "values": [
      {"measurement": "remaining binding at 1 µM", "setting": "panel of 468 kinases [1]; RSK2(Kin.Dom.1-N-terminal)", "result": 70, "unit": "%"},
      {"measurement": "remaining binding at 1 µM", "setting": "panel of 468 kinases [1]; RSK2(Kin.Dom.2-C-terminal)", "result": 34, "unit": "%"},
      {"measurement": "remaining binding at 1 µM", "setting": "panel of 468 kinases [2]", "result": 100, "unit": "%"},
      {"measurement": "remaining binding at 1 µM", "setting": "panel of 468 kinases [3]", "result": 63, "unit": "%"},
      {"measurement": "remaining binding at 1 µM", "setting": "panel of 468 kinases [4]", "result": 96, "unit": "%"},
      {"measurement": "remaining binding at 1 µM", "setting": "panel of 468 kinases [5]", "result": 100, "unit": "%"},
      {"measurement": "remaining binding at 1 µM", "setting": "panel of 468 kinases [6]", "result": 86, "unit": "%"},
      {"measurement": "remaining binding at 1 µM", "setting": "panel of 468 kinases [7]", "result": 99, "unit": "%"},
      {"measurement": "remaining binding at 1 µM", "setting": "panel of 468 kinases [8]", "result": 71, "unit": "%"},
      {"measurement": "remaining binding at 1 µM", "setting": "panel of 468 kinases [9]", "result": 67, "unit": "%"}
    ]}
  ]
}
